According to patent publication US20240050588A1, “PHARMACEUTICAL COMPOSITION CONTAINING PROPOFOL, A CYCLODEXTRIN OR A CYCLODEXTRIN DERIVATIVE AND A PHARMACEUTICALLY ACCEPTABLE SALT” (CENTRE HOSPITALIER UNIVERSITAIRE DE LILLE, priority 2020, published 2024):
Where “and” joins values, the source holds several entries; their conditions need not be identical. Identical values can stand only once.

Experiment: Propofol phase-solubility tests with cyclodextrins according to the method of Higuchi and Connors
Details: 25 °C, water, thermodynamic from solid
Experimental: A large excess of propofol is added to 1.4 ml of the appropriate cyclodextrin solution. The resulting mixtures are vortexed for about 5 min and stirred at a temperature 25±0.5° C. for 24 hours. About 1 ml of the solution is transferred using a Pasteur pipette into an Eppendorf tube. Afterwards, these tubes are centrifuged for 30 min at 13,200 rpm. Afterwards, 40 μl of the aqueous phase are sampled and then diluted to 1/10 in ethanol and to 40/1,000 in a solution of acetonitrile and an ammonia buffer pH 9.2. Afterwards, these samples are filtered through a 0.2 μm filter and then put in vial before analysis by high-performance liquid chromatography with UV detection. The injection volume was 10 microliters (cf. injection loop). […] The stability constants Kc are estimated from the slope of the line of the phase-solubility diagram according to the following equation: Kc=slope/S0 (1−slope).
The stability constant Kc is calculated from the slope of the line of the phase-solubility diagram according to the following equation: Kc=slope/S0(1−slope).
The used 2-hydropropyl-β-cyclodextrin is still that one selected before (HPB-LB). […]
The results of the solubility tests have been analysed again more particularly with the complexation efficiency (CE), calculated using the equation: […]

## CC(C)c1cccc(C(C)C)c1O [propofol, 2,6-bis(propan-2-yl)phenol]
  solubility at 24 h: 1070 µM and 190 µg/mL
